Measurements from patent US7951815B2, “Substituted 1,4,8-triazaspiro [4,5]decan-2-one compounds” (Gruenenthal GmbH, priority 2004, dated 2011).
Like-named read-outs stand apart in the source and are kept apart here.

Assays:
[1] = biological target: T1, 5-HT transporter (Rattus norvegicus, UniProt P31652); assay: Inhibition of 5-HT uptake in rat brain synaptosomes; type: biochemical; conditions: rat, 1 μM; for inhibition at 1 µM: read-out: Uptake 5-HT, % inhibition
T1 construct: synaptosomes of rat brain areas are freshly isolated; from tissue; host or cells: rat brain synaptosomes (P2 fraction) from marrow and pons
T1 sequence (P31652 whole entry): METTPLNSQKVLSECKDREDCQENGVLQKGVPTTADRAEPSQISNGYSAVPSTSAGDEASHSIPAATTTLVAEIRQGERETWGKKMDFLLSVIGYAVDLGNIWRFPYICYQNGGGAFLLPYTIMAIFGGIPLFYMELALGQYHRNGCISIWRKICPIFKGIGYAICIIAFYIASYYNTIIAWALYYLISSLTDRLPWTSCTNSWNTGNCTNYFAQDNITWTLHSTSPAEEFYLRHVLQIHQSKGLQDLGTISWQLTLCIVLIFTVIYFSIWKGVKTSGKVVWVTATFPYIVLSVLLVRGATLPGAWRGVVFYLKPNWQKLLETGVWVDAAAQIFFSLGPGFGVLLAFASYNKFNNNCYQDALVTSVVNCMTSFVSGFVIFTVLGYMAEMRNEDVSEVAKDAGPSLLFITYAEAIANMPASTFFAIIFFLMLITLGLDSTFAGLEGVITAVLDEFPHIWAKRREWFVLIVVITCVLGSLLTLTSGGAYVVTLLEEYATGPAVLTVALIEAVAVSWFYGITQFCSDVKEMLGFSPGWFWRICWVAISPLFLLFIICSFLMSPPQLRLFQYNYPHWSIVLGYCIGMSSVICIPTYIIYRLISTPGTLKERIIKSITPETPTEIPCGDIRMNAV

[2] = system: batrachotoxin (BTX) binding site of the sodium channel; assay: Affinity to the batrachotoxin (BTX) binding site of the sodium channel; conditions: rat cerebrocortex synaptosomes, test concentration not given

SMILES	inhibition at 1 µM ([1]; Table III) [%]	BTX inhibition ([2]; Table III)	other results
O=C(c1ccc(-c2ccccc2)cc1)N1CCC2(CC1)NCC(=O)N2Cc1ccccc1F [Example 262, 8-(Biphenyl-4-carbonyl)-1-(2-fluorobenzyl)-1,4,8-triazaspiro[4,5]decan-2-one]	60	70	
CCCCN1C(=O)C(Cc2ccccc2)NC12CCN(C(=O)CCC1CCCC1)CC2 (stereo not shown) [Example 188, 3-Benzyl-1-butyl-8-(3-cyclopentylpropionyl)-1,4,8-triazaspiro[4,5]decan-2-one]	70	69	
CCSc1ncccc1C(=O)N1CCC2(CC1)NC(CC(C)C)C(=O)N2CCCCOC(C)=O (stereo not shown) [Example 257, Butyl 4-[8-(2-ethylsulfanylpyridin-3-carbonyl)-3-isobutyl-2-oxo-1,4,8-triazaspiro[4,5]dec-1-yl]acetate]		35	Uptake 5-HT, rat, 1 μM, % inhibition ([1]; Table III): 59%
CCCCN1C(=O)C(CCSC)NC12CCN(C(=O)C1COc3ccc(Cl)cc3C1)CC2 (stereo not shown) [Example 150, 1-Butyl-8-(6-Chloro-2H-chroman-3-carbonyl)-3-(2-methylsulfanylethyl)-1,4,8-triazaspiro[4,5]decan-2-one]		56	Uptake 5-HT, rat, 1 μM, % inhibition ([1]; Table III): 72%
CCCCN1C(=O)C(Cc2ccccc2)NC12CCN(C(=O)c1cc(C(C)(C)C)nn1C)CC2 (stereo not shown) [Example 249, 3-Benzyl-1-butyl-8-(5-tert-butyl-2-methyl-2H-pyrazole-3-carbonyl)-1,4,8-triazaspiro[4,5]decan-2-one]	55	34	
Cc1ccc(C(=O)N2CCC3(CC2)NC(CC(C)C)C(=O)N3Cc2c(Cl)cccc2Cl)c(F)c1F (stereo not shown) [Example 324, 1-(2,6-Dichlorobenzyl)-8-(2,3-difluoro-4-methylbenzoyl)-3-isobutyl-1,4,8-triazaspiro[4,5]decan-2-one]	31	62	
CCC(C(=O)N1CCC2(CC1)NC(Cc1ccccc1)C(=O)N2Cc1ccccc1)c1ccccc1 (stereo not shown) [Example 237, 1,3-Dibenzyl-8-(2-phenylbutyryl)-1,4,8-triazaspiro[4,5]decan-2-one]	63	42	
CCOC(=O)CN1C(=O)C(Cc2ccccc2)NC12CCN(C(=O)C1CC1)CC2 (stereo not shown) [Example 293, Ethyl (3-benzyl-8-cyclopropanecarbonyl-2-oxo-1,4,8-triazaspiro[4,5]dec-1-yl)acetate]	55	31	
CSCCC1NC2(CCN(C(=O)c3c(Cl)ccc(C)c3F)CC2)N(Cc2ccccc2)C1=O (stereo not shown) [Example 240, 1-Benzyl-8-(6-chloro-2-fluoro-3-methylbenzoyl)-3-(2-methylsulfanylethyl)-1,4,8-triazaspiro[4,5]decan-2-one]	54	30	
CCCCN1C(=O)C(Cc2ccccc2)NC12CCN(C(=O)C1CCCCC1)CC2 (stereo not shown) [Example 180, 3-Benzyl-1-butyl-8-cyclohexanecarbonyl-1,4,8-triazaspiro[4,5]decan-2-one]	63	42	
C=CCN1C(=O)C(CCSC)NC12CCN(C(=O)c1cc(C(C)(C)C)nn1C)CC2 (stereo not shown) [Example 330, 1-Allyl-8-(5-tert-butyl-2-methyl-2H-pyrazole-3-carbonyl)-3-(2-methylsulfanylethyl)-1,4,8-triazaspiro[4,5]decan-2-one]	45	31	
C=CCN1C(=O)C(CCSC)NC12CCN(C(=O)c1cnn(-c3ccccc3)c1CCC)CC2 (stereo not shown) [Example 323, 1-Allyl-3-(2-methylsulfanylethyl)-8-(1-phenyl-5-propyl-1H-pyrazole-4-carbonyl)-1,4,8-triazaspiro[4,5]decan-2-one]	33	43	
Cc1cc(C)cc(CN2C(=O)C(CC(C)C)NC23CCN(C(=O)CN(C)C)CC3)c1 (stereo not shown) [Example 309, 8-(2-Dimethylaminoacetyl)-1-(3,5-dimethylbenzyl)-3-isobutyl-1,4,8-triazaspiro[4,5]decan-2-one]	43	82	
CC(C)CC1NC2(CCN(C(=O)c3ccc(-c4ccccc4)cc3)CC2)N(Cc2ccc(F)cc2)C1=O (stereo not shown) [Example 101, 8-(Biphenyl-4-carbonyl)-1-(4-fluorobenzyl)-3-isobutyl-1,4,8-triazaspiro[4,5]decan-2-one]	33	78	
CCCCN1C(=O)C(Cc2ccccc2)NC12CCN(C(=O)c1cc(F)ccc1C(F)(F)F)CC2 (stereo not shown) [Example 175, 3-Benzyl-1-butyl-8-(5-fluoro-2-trifluoromethylbenzoyl)-1,4,8-triazaspiro[4,5]decan-2-one]	69	38	
CCSc1ncccc1C(=O)N1CCC2(CC1)NC(Cc1ccccc1)C(=O)N2Cc1ccccc1 (stereo not shown) [Example 145, 1,3-Dibenzyl-8-(2-ethylsulfanylpyridin-3-carbonyl)-1,4,8-triazaspiro[4,5]decan-2-one]	89	64	

SMILES	inhibition at 1 µM ([1]; Table III) [%]	BTX inhibition ([2]; Table III)	other results
Cl.O=C(CCc1ccccc1)N1CCC2(CC1)N[C@@H](Cc1ccccc1)C(=O)N2Cc1ccccc1 [Example 58, 1,3-(S)-dibenzyl-8-(3-phenylpropionyl)-1,4,8-triazaspiro[4,5]decan-2-one hydrochloride]			inhibition at 1 µM ([1]; Table II): 46%; BTX inhibition ([2]; Table II): 46
CCCCCC(=O)N1CCC2(CC1)NC(C(C)C)C(=O)N2CCCC (stereo not shown) [Example 129, 1-Butyl-8-hexanoyl-3-isopropyl-1,4,8-triazaspiro[4,5]decan-2-one]	47	30	
COc1ccc(CC(=O)N2CCC3(CC2)NC(Cc2ccccc2)C(=O)N3C)cc1 (stereo not shown) [Example 176, 3-Benzyl-8-[2-(4-methoxyphenyl)acetyl]-1-methyl-1,4,8-triazaspiro[4,5]decan-2-one]	37	30	
COC(=O)c1ccc(CN2C(=O)C(C(C)C)NC23CCN(C(=O)c2ccc(C(F)(F)F)c(F)c2)CC3)cc1 (stereo not shown) [Example 204, Methyl 4-[8-(3-fluoro-4-trifluoromethylbenzoyl)-3-isopropyl-2-oxo-1,4,8-triazaspiro[4,5]dec-1-ylmethyl]benzoate]	42	44	
CC(C)C1NC2(CCN(C(=O)c3ccccc3C(=O)OCc3ccccc3)CC2)N(Cc2ccccc2)C1=O (stereo not shown) [Example 236, Benzyl 2-(1-benzyl-3-isopropyl-2-oxo-1,4,8-triazaspiro[4,5]decan-8-carbonyl)benzoate]	48	50	
COc1ccc(CN2C(=O)[C@H](Cc3ccccc3)NC23CCN(C(=O)c2ccc(Cl)cc2)CC3)cc1.Cl (racemic) [Example 27, 3-(S,R)-benzyl-8-(4-chloro-benzoyl)-1-(4-methoxy-benzyl)-1,4,8-triazaspiro[4,5]decan-2-one hydrochloride]			Uptake 5-HT, rat, 1 μM, % inhibition ([1]; Table II): 78%; BTX inhibition ([2]; Table II): 79
Cl.O=C(c1ccco1)N1CCC2(CC1)N[C@@H](Cc1ccccc1)C(=O)N2Cc1ccccc1 [Example 60, 1,3-(S)-dibenzyl-8-(furan-2-carbonyl)-1,4,8-triazaspiro[4,5]decan-2-one hydrochloride]			inhibition at 1 µM ([1]; Table II): 80%; BTX inhibition ([2]; Table II): 39
O=C(c1ccc(Br)cc1)N1CCC2(CC1)NC(Cc1ccccc1)C(=O)N2Cc1ccccc1 (stereo not shown) [Example 105, 1,3-Dibenzyl-8-(4-bromobenzoyl)-1,4,8-triazaspiro[4,5]decan-2-one]	68	66	
CC(C)C1NC2(CCN(C(=O)C=Cc3ccccc3Cl)CC2)N(CCOc2ccccc2)C1=O (stereo not shown) [Example 225, 8-[3-(2-Chlorophenyl)acryloyl]-3-isopropyl-1-(2-phenoxyethyl)-1,4,8-triazaspiro[4,5]decan-2-one]	32	55	
Cc1nnsc1C(=O)N1CCC2(CC1)NC(Cc1ccccc1)C(=O)N2Cc1ccccc1 (stereo not shown) [Example 177, 1,3-Dibenzyl-8-(4-methyl[1,2,3]thiadiazole-5-carbonyl)-1,4,8-triazaspiro[4,5]decan-2-one]	79	30	
CCCc1ccc(C(=O)N2CCC3(CC2)NC(CC(C)C)C(=O)N3Cc2c(Cl)cccc2Cl)cc1 (stereo not shown) [Example 317, 1-(2,6-Dichlorobenzyl)-3-isobutyl-8-(4-propylbenzoyl)-1,4,8-triazaspiro[4,5]decan-2-one]	33	62	
CSCCC1NC2(CCN(C(=O)CCC3CCCC3)CC2)N(Cc2ccccc2)C1=O (stereo not shown) [Example 221, 1-Benzyl-8-(3-cyclopentylpropionyl)-3-(2-methylsulfanylethyl)-1,4,8-triazaspiro[4,5]decan-2-one]	79	36	
CSCCC1NC2(CCN(C(=O)c3cccc(OC(F)(F)F)c3)CC2)N(Cc2cccc(C#N)c2)C1=O (stereo not shown) [Example 200, 3-[3-(2-Methylsulfanylethyl)-2-oxo-8-(3-trifluoromethoxybenzoyl)-1,4,8-triazaspiro[4,5]dec-1-ylmethyl]benzonitrile]	45	44	
Cl.O=C(c1ccc(F)cc1)N1CCC2(CC1)N[C@@H](Cc1ccccc1)C(=O)N2Cc1ccccc1 [Example 62, 1,3-(S)-dibenzyl-8-(4-fluorobenzoyl)-1,4,8-triazaspiro[4,5]decan-2-one hydrochloride]			inhibition at 1 µM ([1]; Table II): 87%; BTX inhibition ([2]; Table II): 48
CCOC(=O)CN1C(=O)C(Cc2ccccc2)NC12CCN(C(=O)CC(C)C)CC2 (stereo not shown) [Example 294, Ethyl [3-benzyl-8-(3-methylbutyryl)-2-oxo-1,4,8-triazaspiro[4,5]dec-1-yl]acetate]	53	33	
Cl.O=C(c1ccc2ccccc2c1)N1CCC2(CC1)N[C@@H](Cc1ccccc1)C(=O)N2Cc1ccccc1 [Example 59, 1,3-(S)-dibenzyl-8-(naphthalin-2-carbonyl)-1,4,8-triazaspiro[4,5]decan-2-one hydrochloride]			inhibition at 1 µM ([1]; Table II): 53%; BTX inhibition ([2]; Table II): 49
